Where two headings read alike, the source gives them in different places.
Tests used:
[1] = system: genotype 1b (Con-1) HCV replicon; assay: HCV replicon luciferase assay; assay type: cell-based; conditions: Hepatitis C virus, Huh-7, 72 h, 1b replicon, Huh-7 cells, Renilla luciferase, 3 days incubation
Protocol: The cell lines used to evaluate compounds consist of a human hepatocyte derived cell line (Huh-7) that constitutively expresses a genotype 1b (Con-1) HCV replicon or a genotype 1b (Con-1) HCV replicon with an asparagine replacing the cysteine at amino acid 316, or a genotype 2a (JFH-1) replicon, containing a Renilla luciferase reporter gene. These cells were maintained in Dulbecco's modified Eagle medium (DMEM) containing 10% FBS, 100 U/mL penicillin/streptomycin and 1.0 mg/mL G418.
After 3 days incubation at 37° C., cells were analyzed for Renilla Luciferase activity using the EnduRen substrate (Promega cat #E6485) according to the manufacturer's directions. Briefly, the EnduRen substrate was diluted in DMEM and then added to the plates to a final concentration of 7.5 μM. The plates were incubated for at least 1 h at 37° C. then read on a Viewlux Imager (PerkinElmer) using a luminescence program.

HCV NS5B = HCV NS5B (Hepatitis C virus genotype 1b (isolate Con1) (HCV), UniProt Q9WMX2); assay: HCV NS5B RdRp enzyme assay; assay type: biochemical, HCV genotype 1b (Con1)
Protocol: Each untagged protein was expressed with an 18 amino acid C-terminal truncation to enhance the solubility. The E. coli competent cell line BL21(DE3) was used for expression of the protein. […] The cultures were cooled to 20° C. and induced with 1 mM IPTG. Fresh ampicillin was added to a final concentration of 50 μg/mL and the cells were grown overnight at 20° C.
The lysis buffer consisted of 20 mM Tris-HCl, pH 7.4, 500 mM NaCl, 0.5% triton X-100, 1 mM DTT, 1 mM EDTA, 20% glycerol, 0.5 mg/mL lysozyme, 10 mM MgCl2, 15 ug/mL deoxyribonuclease I, and Complete TM protease inhibitor tablets (Roche). After addition of the lysis buffer, frozen cell pellets were resuspended using a tissue homogenizer. To reduce the viscosity of the sample, aliquots of the lysate were sonicated on ice using a microtip attached to a Branson sonicator. The sonicated lysate was centrifuged at 100,000×g for 30 minutes at 4° C. and filtered through a 0.2 μm filter unit (Corning).
The protein was purified using two sequential chromatography steps: Heparin sepharose CL-6B and polyU sepharose 4B. The chromatography buffers were identical to the lysis buffer but contained no lysozyme, deoxyribonuclease I, MgCl2 or protease inhibitor and the NaCl concentration of the buffer was adjusted according to the requirements for charging the protein onto the column. Each column was eluted with a NaCl gradient which varied in length from 5-50 column volumes depending on the column type. […] The enzyme was aliquoted and stored at −80° C.
An on-bead solid phase homogeneous assay was used in a 384-well format to assess NS5B inhibitors (WangY-K, Rigat K, Roberts S, and Gao M (2006) Anal Biochem, 359: 106-111). The biotinylated oligo dT12 primer was captured on streptavidin-coupled imaging beads (GE, RPNQ0261) by mixing primer and beads in 1× buffer and incubating at room temperature for three hours. Unbound primer was removed after centrifugation. The primer-bound beads were resuspended in 3× reaction mix (20 mM Hepes buffer, pH 7.5, dT primer coupled beads, poly A template, ^3H-UTP, and RNAse inhibitor (Promega N2515)). Compounds were serially diluted 1:3 in DMSO and aliquoted into assay plates. […]
Reactions were allowed to proceed for 24 hours at 30° C. and terminated by the addition of 50 mM EDTA (5 μL). After incubating for at least 15 minutes, plates were read on an Amersham LEADseeker multimodality imaging system.
IC50 values for compounds were determined using ten different [I]. IC50 values were calculated from the inhibition using the four-parameter logistic formula y=A+((B−A)/(1+((C/x)^D))), where A and B denote minimal and maximal % inhibition, respectively, C is the IC50, D is hill slope and x represents compound concentration.

HCV = conditions: cited from earlier work
[2] = extended dosing, combination with interferon and ribavirin; cited from earlier work
[3] = 1b enzyme, 7 nM NS5B, 24 hours at 30° C., read-out: IC50

Sequence of HCV NS5B (Q9WMX2 2420-2992): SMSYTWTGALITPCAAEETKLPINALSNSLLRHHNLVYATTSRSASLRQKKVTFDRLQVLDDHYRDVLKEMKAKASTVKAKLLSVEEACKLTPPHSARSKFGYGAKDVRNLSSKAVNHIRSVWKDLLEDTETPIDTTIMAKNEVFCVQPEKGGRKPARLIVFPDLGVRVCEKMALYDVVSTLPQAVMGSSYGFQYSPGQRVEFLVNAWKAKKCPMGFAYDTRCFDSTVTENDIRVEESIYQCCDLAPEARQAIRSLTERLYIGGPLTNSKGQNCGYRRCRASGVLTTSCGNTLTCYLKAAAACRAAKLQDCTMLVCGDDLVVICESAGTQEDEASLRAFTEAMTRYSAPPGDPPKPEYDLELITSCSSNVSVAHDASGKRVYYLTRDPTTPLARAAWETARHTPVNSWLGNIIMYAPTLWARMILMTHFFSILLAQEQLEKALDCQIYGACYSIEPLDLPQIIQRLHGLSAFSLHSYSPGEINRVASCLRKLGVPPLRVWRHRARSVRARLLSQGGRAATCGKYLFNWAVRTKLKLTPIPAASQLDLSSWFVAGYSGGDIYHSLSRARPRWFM

Row | Compound | EC50 [1] [nM] | IC50 (HCV NS5B; [3]) [nM] | further results
1 | CNC(=O)c1c(-c2ccc(F)cc2)oc2nc(CCC(F)(F)F)c(-c3cccc(C(=O)NC4(c5ncon5)CCC4)c3)cc12 [Example 4, 5-(3-((1-(1,2,4-oxadiazol-3-yl)cyclobutyl)carbamoyl)phenyl)-2-(4-fluorophenyl)-N-methyl-6-(3,3,3-trifluoropropyl)furo[2,3-b]pyridine-3-carboxamide] | 2.41 | 2.05 | –
2 | CNC(=O)c1c(-c2ccc(F)cc2)oc2nc(CCC(F)(F)F)c(-c3cccc(C(=O)NC(C)(C)c4nc(C)no4)c3)cc12 [Example 9, 2-(4-fluorophenyl)-N-methyl-5-(3-((2-(3-methyl-1,2,4-oxadiazol-5-yl)propan-2-yl)carbamoyl)phenyl)-6-(3,3,3-trifluoropropyl)furo[2,3-b]pyridine-3-carboxamide] | 2.11 | 2.87 | –
3 | CNC(=O)c1c(-c2ccc(F)cc2)oc2nc(NCC(F)(F)F)c(-c3ccc(F)c(C(=O)NC(C)(C)c4ncon4)c3)cc12 [Example 13, 5-(3-((2-(1,2,4-oxadiazol-3-yl)propan-2-yl)carbamoyl)-4-fluorophenyl)-2-(4-fluorophenyl)-N-methyl-6-((2,2,2-trifluoroethyl)amino)furo[2,3-b]pyridine-3-carboxamide] | 5.76 | 3.42 | –
4 | [2H]C([2H])([2H])Oc1ncc(-c2cc3c(C(=O)NC)c(-c4ccc(F)cc4)oc3nc2CCC(F)(F)F)cc1C(=O)NC(c1ncon1)(C([2H])([2H])[2H])C([2H])([2H])[2H] [Example 17, 5-[2-(4-fluorophenyl)-3-(methylcarbamoyl)-6-(3,3,3-trifluoropropyl)furo[2,3-b]pyridin-5-yl]-2-(^2H3)methoxy-N-[2-(1,2,4-oxadiazol-3-yl)(^2H6)propan-2-yl]pyridine-3-carboxamide] | – | – | IC50 (HCV NS5B): 2.4 nM
5 | CNC(=O)c1c(-c2ccc(F)cc2)oc2nc(NCC(F)(F)F)c(-c3cnc(OC)c(C(=O)NC(C)(C)c4ncon4)c3)cc12 [Example 29, 5-[2-(4-fluorophenyl)-3-(methylcarbamoyl)-6-[(2,2,2-trifluoroethyl)amino]furo[2,3-b]pyridin-5-yl]-2-methoxy-N-[2-(1,2,4-oxadiazol-3-yl)propan-2-yl]pyridine-3-carboxamide] | 8.01 | – | –
6 | [2H]C([2H])([2H])Oc1ncc(-c2cc3c(C(=O)NC)c(-c4ccc(F)cc4)oc3nc2CCC(F)(F)F)cc1C(=O)NC(C)(c1ncon1)C1CC1 (stereo not drawn) [Example 30, N-[1-cyclopropyl-1-(1,2,4-oxadiazol-3-yl)ethyl]-5-[2-(4-fluorophenyl)-3-(methylcarbamoyl)-6-(3,3,3-trifluoropropyl)furo[2,3-b]pyridin-5-yl]-2-(^2H3)methoxypyridine-3-carboxamide] | 4.35 | – | –
7 | CNC(=O)c1c(-c2ccc(F)cc2)oc2cc(N(CCO)S(C)(=O)=O)c(C3CC3)cc12 [HCV-796] | – | – | HCV RNA levels in patients (HCV; single agent, transient decrease then rebound during dosing): reduce HCV RNA levels in patients; hepatic toxicity [2]: hepatic toxicity observed during extended dosing of the combination regimens
8 | alpha-interferon and ribavirin | – | – | sustained efficacy (HCV; combination therapy): 40 % of patients

From patent publication US8962651B2, “Compounds for the treatment of hepatitis C” (Bristol-Myers Squibb Company, priority 2013, dated 2015)
